Like-named read-outs stand apart in the source and are kept apart here.
Legend:
[1] = system: ECM deposition of collagen type IV by AoSMC; test: ECM deposition of collagen type IV by AoSMC (immunoassay); format: cell-based, human; details: for increased collagen IV deposition: compared to 1.25 μM; for decrease in ascorbyl palmitate dependent ECM deposition of collagen IV / reduction of ascorbic acid dependent deposition of collagen type IV to the ECM: 50 μM nifedipine
Procedure: (§1) Both cell cultures were maintained in DMEM medium (ATCC) containing antibiotics and 5% fetal bovine serum (FBS, ATCC). All cell cultures were maintained at 37° C. and 5% CO2 atmosphere. Cell viability was monitored with MTT assay.
(§2) Collagen production by human cultured cells: In the case of these experiments, DF or AoSMC, at 5th to 8th passages, were seeded on collagen type I-covered plastic plates (Becton-Dickinson, collagen I isolated from rat tail tendon) at density of 25,000/cm^2 and grown to confluence for 5-7 days. […] Tested compounds were added to cells at indicated concentrations for 72 h in DMEM supplemented with 2% FBS and cell-produced extracellular matrix was exposed by sequential treatment with 0.5% Triton X100 and 20 mM ammonium […] in phosphate buffered saline (PBS, Life Technologies) for 3 min each at room temperature. After four washes with PBS, ECM layers were treated with 1% bovine serum albumin (BSA) in PBS for one hour at room temperature and immediately used in experiments.
(§3) Collagen and beta-actin immunoassays: Immunoassays were done by sequential incubation with primary monoclonal antibodies specific to human collagen type I or IV or human beta-actin in 1% BSA/PBS for 2 hours followed by 1 hour incubation with secondary goat anti-mouse IgG antibodies labeled with horse radish peroxidase (HRP).
(§4) Differences between samples were estimated with a two-tailed Student's t-test using MedCalc software (Mariakerke, Belgium) and accepted as significant at p levels less than 0.05.

[2] = cited from earlier work
[3] = system: ECM deposition of collagen type I by cultured AoSMC; test: ECM deposition of collagen type I by cultured AoSMC (immunoassay); details: for reduction of ascorbyl palmitate dependent deposition of collagen type 1 to the ECM / reduction of ascorbic acid dependent deposition of collagen type 1 to the ECM: 50 μM nifedipine
[4] = system: ascorbate accumulation inside human AoSMC; test: Intracellular ascorbic acid assay in AoSMC; format: cell-based
Procedure: Cells were washed briefly three times with ice-cold PBS on ice and incubated with 300 μl of 0.1% saponin in 1% ethanol in PBS for 10 min on an orbit mixer. Samples were collected to Eppendorf tubes and centrifuged at 13,000×g for 5 min. Supernatants were used in an ascorbic acid assay (Ascorbic Acid Colorimetric Assay Kit […], BioVision) in accordance with the manufacturer's protocol. […] Differences between samples were estimated with a two-tailed Student's t-test using MedCalc software ([…], Belgium) and accepted as significant at p levels less than 0.05.

[5] = system: cultured fibroblasts; test: Cell viability / cytotoxicity (MTT assay), fibroblasts; format: cell-based, human; details: data not shown
Procedure: as §1

[6] = system: smooth muscle cells; test: Cell viability / cytotoxicity (MTT assay), smooth muscle cells; format: cell-based, human; details: cultured smooth muscle cells; data not shown
Procedure: as §1

[7] = system: collagen type I ECM deposition by cultured human skin fibroblasts; test: Collagen type I ECM deposition by cultured human skin fibroblasts (immunoassay); format: cell-based; details: channel blocker alone, without ascorbate; 72 h; FIG. 1A-1F
Procedure: as §1, §2
as §3, with “(HRP). […]” for “(HRP).”

[8] = system: human vascular smooth muscle cells and fibroblasts; details: cited from earlier work
[9] = system: intracellular content of collagen type I in AoSMC; test: Intracellular content of collagen type I in AoSMC (immunoassay); format: cell-based, human; details: for reduction of ascorbate-dependent intracellular collagen type 1 synthesis: 50 μM nifedipine; for reduction of ascorbate-dependent collagen type 1 synthesis: nifedipine
Procedure: as §1, §2, §3, §4

[10] = system: intracellular content of beta-Actin in AoSMC; test: Intracellular content of beta-actin in AoSMC (immunoassay); format: cell-based, human; details: for reduction of ascorbate-dependent beta-actin intracellular content compared to control: 50 μM nifedipine; for reduction of intracellular beta actin content: nifedipine
Procedure: as §1, §2, §3, §4

[11] = system: intracellular content of collagen type I normalized to beta actin content in aortic smooth muscle cells; test: Intracellular collagen type I normalized by beta actin content in AoSMC; format: cell-based, human; details: for reduction of intracellular content of collagen type I normalized to beta actin content compared to the control: 50 μM nifedipine
Procedure: as §2, §3, §4

[12] = 100 μM ascorbic acid compared to 25 μM ascorbic acid
[13] = 400 μM ascorbic acid compared to 25 μM ascorbic acid

O=C1O[C@H]([C@@H](O)CO)C(O)=C1O [ascorbic acid]
increased collagen IV ECM deposition [1, 12]: 175%
increased collagen IV ECM deposition [1, 13]: 166%
excretion half-life ([2]; body stores depleted, by the onset of the first symptoms of scurvy): 83 days
renal resorption threshold (plasma level) ([2]; men): about 1.5 mg/dL
half-life of excretion in the urine ([2]; plasma concentrations larger than renal resorption threshold): about 30 minutes
renal resorption threshold (plasma level) ([2]; women): ~1.3 mg/dL
increase of collagen type 1 ECM deposition [3, 12]: 114%
increase of collagen type 1 ECM deposition [3, 13]: 176%

CCCCCCCCCCCCCCCC(=O)OC[C@H](O)[C@H]1OC(=O)C(O)=C1O [ascorbyl palmitate]
increased collagen IV deposition ([1]; 2.5 μM ascorbyl palmitate alone): 113%
increased collagen IV deposition ([1]; 5 μM ascorbyl palmitate alone): 144%
increased collagen IV deposition ([1]; 10 μM ascorbyl palmitate alone): 138%
increased collagen IV deposition ([1]; 20 μM ascorbyl palmitate alone): 168%
higher intracellular levels of ascorbic acid compared to the highest concentration of ascorbic acid used (400) ([4]; supplementation with 20 ascorbyl palmitate (unit not given)): 10 ×
levels found to be cytotoxic [5]: higher than 20 μM
levels found to be cytotoxic [6]: higher than 20 μM
increase of collagen type 1 ECM deposition ([3]; 2.5 μM ascorbyl palmitate administered individually, compared to 1.25 μM): 135%
increase of collagen type 1 ECM deposition ([3]; 5 μM ascorbyl palmitate administered individually, compared to 1.25 μM): 189%
increase of collagen type 1 ECM deposition ([3]; 10 μM ascorbyl palmitate administered individually, compared to 1.25 μM): 184%
increase of collagen type 1 ECM deposition ([3]; 20 μM ascorbyl palmitate administered individually, compared to 1.25 μM): 212%

COc1cc(CNC(=O)CCCC/C=C/C(C)C)ccc1O [capsaicin]
inhibition of collagen type I deposition to the ECM [7]: slight, insignificant inhibition

COc1ccc([C@@H]2Sc3ccccc3N(CCN(C)C)C(=O)[C@@H]2OC(C)=O)cc1 [ditiazem]
inhibition of collagen type I deposition to the ECM [7]: up to 13.1%
constitutive and platelet-derived growth factor-dependent collagen deposition in the ECM [8]: significantly decreased

COC(=O)C1=C(C)NC(C)=C(C(=O)OC)C1c1ccccc1[N+](=O)[O-] [nifedipine]
decrease in ascorbyl palmitate dependent ECM deposition of collagen IV ([1]; 1.25 μM ascorbyl palmitate): 23.5%
decrease in ascorbyl palmitate dependent ECM deposition of collagen IV ([1]; 2.5 μM ascorbyl palmitate): 22.7%
decrease in ascorbyl palmitate dependent ECM deposition of collagen IV ([1]; 5 μM ascorbyl palmitate): 22%
decrease in ascorbyl palmitate dependent ECM deposition of collagen IV ([1]; 10 μM ascorbyl palmitate): 13.5%
decrease in ascorbyl palmitate dependent ECM deposition of collagen IV ([1]; 20 μM ascorbyl palmitate): 31.6%
reduction of ascorbic acid dependent deposition of collagen type IV to the ECM ([1]; 25 μM ascorbic acid): 36%
reduction of ascorbic acid dependent deposition of collagen type IV to the ECM ([1]; 100 μM ascorbic acid): 54%
reduction of ascorbic acid dependent deposition of collagen type IV to the ECM ([1]; 400 μM ascorbic acid): 43%
reduction of ascorbate-dependent intracellular collagen type 1 synthesis ([9]; 25 μM ascorbic acid): 61%
reduction of ascorbate-dependent intracellular collagen type 1 synthesis ([9]; 100 μM ascorbic acid): 49.1%
increase of intracellular collagen I compared to control ([9]; nifedipine with 400 μM ascorbic acid): 122%
reduction of ascorbate-dependent collagen type 1 synthesis ([9]; ascorbyl palmitate at 5 (unit not given)): 20.3%
reduction of ascorbate-dependent collagen type 1 synthesis ([9]; ascorbyl palmitate at 20 (unit not given)): 38%
reduction of ascorbate-dependent beta-actin intracellular content compared to control ([10]; 25 μM ascorbic acid): 29%
reduction of ascorbate-dependent beta-actin intracellular content compared to control ([10]; 100 μM ascorbic acid): 22.6%
reduction of ascorbate-dependent beta-actin intracellular content compared to control ([10]; 400 μM ascorbic acid): 5%
reduction of intracellular beta actin content ([10]; 5 μM ascorbyl palmitate): 22%
reduction of intracellular beta actin content ([10]; 20 μM ascorbyl palmitate): 23.6%
reduction of intracellular content of collagen type I normalized to beta actin content compared to the control ([11]; 25 μM ascorbic acid): 46%
reduction of intracellular content of collagen type I normalized to beta actin content compared to the control ([11]; 100 μM ascorbic acid): 34.4%
increase of collagen I (normalized to beta actin) compared to control ([11]; nifedipine, 400 μM ascorbic acid): 23%
effect on collagen I content (normalized to beta actin) ([11]; nifedipine, ascorbyl palmitate at 5 μM and 20 μM): no significant effect
effect on intracellular ascorbate levels [4]: no significant effect
decrease of intracellular ascorbate ([4]; 50 μM nifedipine, 100 μM ascorbic acid, 90 min): 61.5%
reduction of ascorbate intracellular content ([4]; 50 μM nifedipine, 400 μM ascorbic acid, 90 min): 67.7%
reduction of ascorbyl palmitate dependent deposition of collagen type 1 to the ECM ([3]; 1.25 μM ascorbyl palmitate): 25%
reduction of ascorbyl palmitate dependent deposition of collagen type 1 to the ECM ([3]; 2.5 μM ascorbyl palmitate): 38%
reduction of ascorbyl palmitate dependent deposition of collagen type 1 to the ECM ([3]; 5 μM ascorbyl palmitate): 27.5%
reduction of ascorbyl palmitate dependent deposition of collagen type 1 to the ECM ([3]; 10 μM ascorbyl palmitate): 11%
reduction of ascorbyl palmitate dependent deposition of collagen type 1 to the ECM ([3]; 20 μM ascorbyl palmitate): 26.5%
reduction of ascorbic acid dependent deposition of collagen type 1 to the ECM ([3]; 25 μM ascorbic acid): 62.3%
reduction of ascorbic acid dependent deposition of collagen type 1 to the ECM ([3]; 100 μM ascorbic acid): 41.8%
reduction of ascorbic acid dependent deposition of collagen type 1 to the ECM ([3]; 400 μM ascorbic acid): 16.5%

C=C[C@H]1C[N@@]2CC[C@H]1C[C@@H]2[C@@H](O)c1ccnc2ccc(OC)cc12 [quinidine]
effects on ascorbic acid dependent collagen type I and type IV deposition in AoSMC ([3]; compared with nifedipine, data not shown): comparable results

COc1ccc(CCN(C)CCCC(C#N)(c2ccc(OC)c(OC)c2)C(C)C)cc1OC (stereo not drawn) [verapamil]
constitutive and platelet-derived growth factor-dependent collagen deposition in the ECM [8]: significantly decreased

Source: patent US20170348280A1 (priority 2016, published 2017)
